US8084592B2, “Multivalent entrain-and-amplify immunotherapeutics for carcinoma” (MannKind Corporation, priority 2005, dated 2011)
“Also recorded” adds a separate entry of the source. Non-standard residues stand in square brackets, D forms with d. No end group written: not given here. Nle = CCCC[C@H](N)C(=O)O; Nva = CCC[C@H](N)C(=O)O

Columns and labels:
[1] = test system: T cell line specific for the native epitope; assay: Cross-reactivity of PSMA288-297 analogs: IFN-gamma secretion from T cell line; format: cell-based, HHD transgenic mice; conditions: stimulating with 10 μg/ml of analog (approximately 10 μM)
From the text: A methodology was devised to allow rapid and rational screening of peptide analogs in a fashion coherent with proposed methods of use and modeling the overall immunologic properties (Kon and Koff relative to MHC interaction and TCR binding properties in an integrated fashion). In some instances, the method included generating T cell lines against a natural (non-mutated) epitope (SSX-241-49), and using an immunization strategy potent enough to generate a useful response in transgenic mice carrying human MHC (such as the A2 allele). Peptide analogs were interrogated ex vivo in the presence of competent APCs and the functional impact of T cells specific for natural (non-mutated) epitopes measured. The evaluation was done at various concentrations of analog, because the expected effect was biphasic in the case of cross reactive peptides (activating at limited concentrations and inhibiting at higher concentrations, due to antigen-induced cell death, AICD). Measurement of the following three parameters were used to define basic and useful characteristics of peptide analogs: • 1. […]
The method used for the generation of T cell lines was the following: HHD transgenic mice carrying an A2 human allele (Pascolo et al., J. Exp Med. 185(12):2043-51, 1997, which is hereby incorporated herein by reference in its entirety) were immunized with 50 μg of SSX-2 natural epitope (41-49) admixed with 25 μg of plpC at day 0, 4, 14 and 18 by bilateral administration into the inguinal lymph nodes. […] The supernatant was harvested and the concentration of IFN-gamma assessed by standard methods such as ELISA.
Using the procedures described in application Ser. Nos. 11/455,278 and 11/454,633, each of which is hereby incorporated by reference in its entirety, the binding characteristics of PSMA288-297 and analogs were assessed in comparison to each other see (see FIG. 12). […] Cross reactivity with the native epitope was assessed by using the analog peptides to stimulate IFN-gamma secretion from a T cell line specific for the native epitope, essentially as described in Example 12. […]

[2] = test system: T cells that recognized native PSMA288-297 peptide; assay: Cross-reactive immunogenicity of PSMA288-297 analogs, IFN-γ ELISPOT; format: in vivo, HHD transgenic mice; conditions: 25 μg peptide + 12.5 μg pI:C per lymph node, day 0, 3, 14, 17
Description: Groups of HHD transgenic mice (n=8) were immunized with peptide (natural epitope PSMA288-297, or analogs bearing substitutions at primary or secondary anchor residues) by direct inoculation into the inguinal lymph nodes, with 25 μg in […]+12.5 μg of pI:C to each lymph node at day 0, 3, 14 and 17.
Mice were sacrificed at 10 days after the last boost, and splenocytes prepared and assessed for IFN-γ production by ELISPOT analysis. Various numbers of splenocytes/well were stimulated with 10 μg/ml of native peptide in ELISPOT plates coated with anti-IFN-γ antibody. At 48 hours after incubation, the assay was developed and the frequency of cytokine-producing T cells that recognized native PSMA288-297 peptide was automatically counted. The data is represented in FIG. 15 as the number of spot forming colonies/well (mean of triplicates+SD).

[3] = test system: T cell line specific for the native epitope; assay: Cross-reactivity of PRAME425-433 analogs: IFN-gamma secretion from T cell line; format: cell-based, HHD transgenic mice; conditions: analog peptide at approximately 0.3 μM, normalized to native peptide
From the text: A methodology was devised to allow rapid and rational screening of peptide analogs in a fashion coherent with proposed methods of use and modeling the overall immunologic properties (Kon and Koff relative to MHC interaction and TCR binding properties in an integrated fashion). In some instances, the method included generating T cell lines against a natural (non-mutated) epitope (SSX-241-49), and using an immunization strategy potent enough to generate a useful response in transgenic mice carrying human MHC (such as the A2 allele). Peptide analogs were interrogated ex vivo in the presence of competent APCs and the functional impact of T cells specific for natural (non-mutated) epitopes measured. […]
The method used for the generation of T cell lines was the following: HHD transgenic mice carrying an A2 human allele (Pascolo et al., J. Exp Med. 185(12):2043-51, 1997, which is hereby incorporated herein by reference in its entirety) were immunized with 50 μg of SSX-2 natural epitope (41-49) admixed with 25 μg of plpC at day 0, 4, 14 and 18 by bilateral administration into the inguinal lymph nodes. […] The supernatant was harvested and the concentration of IFN-gamma assessed by standard methods such as ELISA. […]

MHC class I (A2.1) = MHC class I (A2.1) (Homo sapiens, UniProt P04439, D140Y/D185E/D98H/E176V/E277Q/G131W/G231S/I119V/I121R/I166T/I218V/L300P/L318F/N151K/N90K/P208A/P217A/Q86G/Q94H/R138H/R169H/T345S); assay: Binding characteristics (affinity, stability) of PSMA288-297 and analogs
[4] = test system: splenocytes responding to the PRAME425-433 peptide; assay: Cross-reactive immunogenicity of PRAME analog, IFN-γ ELISA of splenocytes; format: in vivo, HHD transgenic mice; conditions: pCTLR2 plasmid prime, peptide boost 2.5 μg day 28 and 31, versus native peptide boost
Description: This was followed by two peptide boosts (2.5 μg) at day 28 and 31, of native peptide or the PRAME epitope analog L426Nva L433Nle.
Mice were sacrificed at 10 days after the last boost, and splenocytes prepared and assessed for IFN-γ production after in vitro stimulation at 0.5×10^6 cells/well, with 10 μg/ml of native peptide.

HLA-A*0201 = HLA-A*0201 (Homo sapiens, UniProt P04439, D140Y/D185E/D98H/E176V/E277Q/G131W/G231S/I119V/I121R/I166T/I218V/L300P/L318F/N151K/N90K/P208A/P217A/Q86G/Q94H/R138H/R169H/T345S); assay: HLA-A*0201 binding characteristics of PRAME425-433 and analogs
Description: The positive control for binding was melan-A26-35 A27L. […] Cross reactivity with the native epitope was assessed by using the analog peptides to stimulate IFN-gamma secretion from a T cell line specific for the native epitope, essentially as described in Example 12. The data shown in FIGS. 16-18 were generated by stimulating with analog peptide at approximately 0.3 μM. […] In some cases, the reported values are the average of two determinations.

| Substance | IFN-gamma production (cross-reactivity) compared to native peptide [1] | immunogenicity against the native epitope [2] | IFN-γ production (cross-reactivity) compared to native peptide [3] | further results |
| --- | --- | --- | --- | --- |
| GLPSIPVHPV [PSMA288-297 I297V] | increased the amount of IFN-gamma produced | increased priming of immune responses against the native epitope | – | – |
| PRAME425-433 C-terminal amide: PRAME425-433 with carboxy-terminus modified by the addition of an amide group (SLLQHLIGL-NH2) | – | – | within twofold of the native peptide | – |
| PSMA288-297 PO Nva: PSMA288-297 analog, Nva at PO | increased the amount of IFN-gamma produced | slightly higher (but significant) activity than the native peptide | – | stability of binding (half-time of dissociation) compared to native peptide (MHC class I (A2.1)): improved the stability of binding |
| PSMA288-297 P1 Abu: PSMA288-297 analog, Abu at P1 | marginally similar cross-reactivity | slightly higher (but significant) activity than the native peptide | – | – |
| SNvaLQHLIGNle (S[Nva]LQHLIG[Nle]) [L426Nva L433Nle] | – | – | significant level of cross-reactivity | IFN-γ production in response to the PRAME425-433 peptide (ELISA) [4]: significant enhancement of IFN-γ production; binding characteristics (affinity and stability) (HLA-A*0201): similar, somewhat improved binding characteristics |
| GLPSIPVHPI (homo sapien) [PSMA288-297, reference compound] | – | poorly immunogenic; also recorded: poor immunogenicity | – | binding characteristics (MHC class I (A2.1)): generally superior binding characteristics |
